Laboratory results as given in patent EP4741383A1, “COMPOUND AND USE THEREOF AS ANTI-CANCER DRUG” (Tyligand Bioscience (Shanghai) Limited, priority 2023, dated 2025).

What follows are molecules tested against T1, SHP2 enzyme (catalytic domain, amino acid sequence 224-528) (Homo sapiens, UniProt Q06124) (assay: SHP2 enzyme inhibition assay (DiFMUP substrate, fluorescence)). Conditions: not given.
T1 construct: purchased GenScript
T1 sequence (Q06124 224-528): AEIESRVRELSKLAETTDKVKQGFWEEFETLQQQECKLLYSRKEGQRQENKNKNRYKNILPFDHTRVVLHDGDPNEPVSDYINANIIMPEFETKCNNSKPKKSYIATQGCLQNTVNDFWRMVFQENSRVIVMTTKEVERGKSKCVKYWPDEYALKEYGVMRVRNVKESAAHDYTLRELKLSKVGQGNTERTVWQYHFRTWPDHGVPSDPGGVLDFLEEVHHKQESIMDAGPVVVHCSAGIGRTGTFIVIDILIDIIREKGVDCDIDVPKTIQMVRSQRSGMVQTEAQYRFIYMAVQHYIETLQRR
Type: biochemical
Experimental: This experiment evaluates the inhibitory effect of the test compounds on SHP2 enzyme activity by detecting the reaction between the human recombinant protein SHP2 enzyme and the substrate.
The stock solutions of the reaction buffer components were thawed and mixed homogeneously at room temperature, to prepare the reaction buffer (55 mM HEPES pH = 7.2 (Sigma, Cat. No. #PHR1428), 100 mM NaCl (Beyotime, Cat. No. #ST374, 5 M solution), 0.5 mM EDTA (Beyotime, Cat. No. #ST066), 1 mM DL-Dithiothreitol (DTT) (Sigma, Cat. No. #D9779), 0.002% BSA (Solarbio, Cat. No. #A8010), 0.001% Brij35 (Brij® L23 solution (Brij35) (Sigma, Cat. No. #B4184)). The SHP2 enzyme (catalytic domain, amino acid sequence 224-528, expressed and purified by GenScript) was thawed slowly on ice. 1 µL of this solution (1.37 mg/mL) was added to 386 µL of the reaction buffer to dilute it to 100 nM. Then, 120 µL of the 100 nM SHP2 enzyme solution was added to 2880 µL of reaction buffer to prepare a 4 nM SHP2 enzyme working solution. The test compounds and the specific inhibitor of SHP2 (11a-1, used as a positive control, Zeng, L. et al., J. Med. Chem. 2014, 57, 6594-6609) were prepared as 10 mM DMSO solutions. 10 µL of the 10 mM compound solution was mixed with 20 µL of DMSO solution, and then serially diluted 3-fold, resulting in 10 concentrations. 1 µL of the serially diluted solution was mixed with 99 µL of reaction buffer to obtain a 10-fold diluted compound working solution.
A 96-well black half-area microplate (Greiner, catalog #675076) was used. 25 µL of 4 nM SHP2 enzyme working solution and 5 µL of 10x compound working solution were added to each well and incubated at room temperature for 30 minutes. 15 µL of DiFMUP substrate (Thermo Fisher Scientific, catalog #D6567) was added to 2985 µL of reaction buffer to prepare a 50 µM substrate working solution. After incubation of the compounds and SHP2 enzyme, 20 µL of the 50 µM substrate working solution was added to each well and incubated at room temperature for 5 minutes. The plate was then read on a multi-mode microplate reader (BioTek, Synergy H1) at 340 nm/450 nm fluorescence.
Data were analyzed using GraphPad Prism 9.0 software. A non-linear S-curve regression dose-response-inhibition equation was used to fit the data and generate the dose-response curve, from which the IC50 value was calculated. [formula]

| Structure (SMILES) | IC50 |
| --- | --- |
| O=C(Nc1ccc(-c2cc3cc(F)c(-c4nnn[nH]4)cc3n2C2CCC2)cc1)C(=O)Nc1ccc(N2CC(CCO)C2)cc1 [Example 9] | 87 nM |

Same assay, conditions: SHP2 catalytic domain, DiFMUP substrate, 30 min pre-incubation; read-out: S HP2 I C50

| Structure (SMILES) | IC50 |
| --- | --- |
| O=C(Nc1ccc(-c2cc3cc(F)c(-c4nnn[nH]4)cc3n2C2CCC2)cc1)C(=O)Nc1ccc(N2CCC3(CCC(CO)CC3)CC2)cc1 [Example 112] | 105 nM |
| O=C(Nc1ccc(-c2ccsc2)cc1)C(=O)Nc1ccc(-c2cc3cc(Cl)c(-c4nnn[nH]4)cc3n2C2CCC2)cc1 [Example 5] | 105 nM |
| O=C(Nc1ccc(-c2cc3cc(F)c(-c4nnn[nH]4)cc3n2C2CCC2)cc1)C(=O)Nc1ccc(N2CC3(COC3)C2)cc1 [Example 53] | 64 nM |
| O=C(Nc1ccc(N2CCC3(CCOC3)CC2)cc1)C(=O)NC1CC=C(c2cc3cc(F)c(-c4nnn[nH]4)cc3n2C2CC2)CC1 (stereo not drawn) [Example 64] | 88 nM |
| CC1(O)CCC2(CN(c3ccc(NC(=O)C(=O)Nc4ccc(-c5cc6cc(F)c(-c7nnn[nH]7)cc6n5C5(C)CCC5)cc4)cc3)C2)C1 (stereo not drawn) [Example 80] | 36 nM |
| O=C(Nc1ccc(-c2ccsc2)cc1)C(=O)Nc1ccc(-c2cc3ccc(-c4cnn[nH]4)cc3n2C2CCC2)cc1 [Example 121] | > 10000 nM |
| CC1(O)CCC2(CCN(c3ccc(NC(=O)C(=O)Nc4ccc(-c5cc6cc(F)c(-c7nnn[nH]7)cc6n5C5(C)CCC5)cc4)cc3)CC2)C1 (stereo not drawn) [Example 105] | 86 nM |
| CC1(O)CCC2(CC1)CN(c1ccc(NC(=O)C(=O)Nc3ccc(-c4cc5cc(F)c(-c6nnn[nH]6)cc5n4C4(C)CCC4)cc3)cc1)C2 [Example 84] | 60 nM |
| O=C(Nc1ccc(-c2cc3cc(F)c(-c4nnn[nH]4)cc3n2C2CCC2)cc1)C(=O)Nc1ccc(N2CC(CO)C2)cc1 [Example 8] | 130 nM |
| CC(C)(O)C1CCN(c2ccc(NC(=O)C(=O)Nc3ccc(-c4cc5cc(F)c(-c6nnn[nH]6)cc5n4CC4CC4)cc3)cc2)CC1 [Example 37] | 44 nM |
| CC(C)(O)C1CCC2(CC1)CN(c1ccc(NC(=O)C(=O)Nc3ccc(-c4cc5cc(F)c(-c6nnn[nH]6)cc5n4C4(C)CCC4)cc3)cc1)C2 [Example 88] | 148 nM |
| O=C(Nc1ccc(-c2cc3cc(F)c(-c4nnn[nH]4)cc3n2C2CCC2)cc1)C(=O)Nc1ccc(N2CCC(F)(CO)CC2)cc1 [Example 45] | 55 nM |
| O=C(Nc1ccc(-c2cc3cc(F)c(-c4nnn[nH]4)cc3n2C23CC(C2)C3)cc1)C(=O)Nc1ccc(N2CCC3(CCOC3)CC2)cc1 [Example 71] | 50 nM |
| CC(C)(O)C1CCN(c2ccc(NC(=O)C(=O)Nc3ccc(-c4cc5cc(F)c(-c6nnn[nH]6)cc5n4CC4CCC4)cc3)cc2)CC1 [Example 38] | 112 nM |
| COCC1(CO)CCN(c2ccc(NC(=O)C(=O)Nc3ccc(-c4cc5cc(F)c(-c6nnn[nH]6)cc5n4C4CCC4)cc3)cc2)CC1 [Example 44] | 57 nM |
| O=C(Nc1ccc(-c2cc3cc(F)c(-c4nnn[nH]4)cc3n2C2CCC2)cc1)C(=O)Nc1ccc(N2CC3(C2)CC(O)(C(F)(F)F)C3)cc1 [Example 78] | 74 nM |
| O=C(Nc1ccc(-c2cc3cc(F)c(-c4nnn[nH]4)cc3n2C2CCC2)cc1)C(=O)Nc1ccc(N2CCC3(CCCO3)C2)cc1 (stereo not drawn) [Example 60] | 64 nM |
| O=C(Nc1ccc(N2CCC3(CCOC3)CC2)cc1)C(=O)NC12CC(c3cc4cc(F)c(-c5nnn[nH]5)cc4n3C3CCC3)(C1)C2 [Example 65] | 198 nM |
| CC1(O)CCC2(CCN(c3ccc(NC(=O)C(=O)Nc4ccc(-c5cc6cc(F)c(-c7nnn[nH]7)cc6n5C5CCC5)cc4)cc3)C2)C1 (stereo not drawn) [Example 93] | 56 nM |
| O=C(Nc1ccc(-c2cc3cc(F)c(-c4nnn[nH]4)cc3n2C2CCC2)cc1)C(=O)Nc1ccc(N2CCC3(CC2)COC3)cc1 [Example 63] | 38 nM |
| CC1CN(c2ccc(NC(=O)C(=O)Nc3ccc(-c4cc5cc(F)c(-c6nnn[nH]6)cc5n4C4CCC4)cc3)cc2)CCC1CO (stereo not drawn) [Example 46] | 45 nM |
| O=C(Nc1ccc(-c2cc3cc(F)c(-c4nnn[nH]4)cc3n2C2CCC2)cc1)C(=O)Nc1ccc(N2CC3(CCC(O)CC3)C2)cc1 [Example 81] | 70 nM |

| Structure (SMILES) | IC50 |
| --- | --- |
| CC1(C)CN(c2ccc(NC(=O)C(=O)Nc3ccc(-c4cc5cc(F)c(-c6nnn[nH]6)cc5n4C4CCC4)cc3)cc2)CC1CO (stereo not drawn) [Example 19] | 152 nM |
| CCC1(CO)CCN(c2ccc(NC(=O)C(=O)Nc3ccc(-c4cc5cc(F)c(-c6nnn[nH]6)cc5n4C4CCC4)cc3)cc2)CC1 [Example 43] | 52 nM |
| O=C(Nc1ccc(-c2cc3cc(F)c(-c4nnn[nH]4)cc3n2C2CCC2)cc1)C(=O)Nc1ccc(N2CC3CC2CO3)cc1 (stereo not drawn) [Example 49] | 133 nM |
| N#Cc1nnc(-c2cc3c(cc2F)cc(-c2ccc(NC(=O)C(=O)Nc4ccc(N5CCC6(CCOC6)CC5)cc4)cc2)n3C2CCC2)[nH]1 [Example 127] | 144 nM |
| CC1(n2c(-c3ccc(NC(=O)C(=O)Nc4ccc(N5CCC(C6COC6)CC5)cc4)cc3)cc3cc(F)c(-c4nnn[nH]4)cc32)CCC1 [Example 21] | 68 nM |
| O=C(Nc1ccc(N2CCC3(CCOC3)CC2)cc1)C(=O)NC1CCN(c2cc3cc(F)c(-c4nnn[nH]4)cc3n2C2CCC2)CC1 [Example 66] | 291 nM |
| CC1(n2c(-c3ccc(NC(=O)C(=O)Nc4ccc(N5CC6(CCCOC6)C5)cc4)cc3)cc3cc(F)c(-c4nnn[nH]4)cc32)CCC1 [Example 56] | 74 nM |
| CCC1CN(c2ccc(NC(=O)C(=O)Nc3ccc(-c4cc5cc(F)c(-c6nnn[nH]6)cc5n4C4CCC4)cc3)cc2)CCO1 (stereo not drawn) [Example 48] | 50 nM |
| O=C(Nc1ccc(-c2cc3cc(F)c(-c4nnn[nH]4)cc3n2C2CCC2)cc1)C(=O)Nc1ccc(N2CCOC3(CC3)C2)cc1 [Example 50] | 113 nM |
| O=C(Nc1ccc(-c2cc3cc(F)c(-c4nnn[nH]4)c(F)c3n2C2CCC2)cc1)C(=O)Nc1ccc(N2CCC3(CCOC3)CC2)cc1 [Example 126] | 23 nM |
| O=C(Nc1ccc(C2=CCOC2)cc1)C(=O)Nc1ccc(-c2cc3cc(F)c(-c4nnn[nH]4)cc3n2C2CCC2)cc1 [Example 51] | 57 nM |
| CC1(CO)CCN(c2ccc(NC(=O)C(=O)Nc3ccc(-c4cc5cc(F)c(-c6nnn[nH]6)cc5n4C4(C)CC4)cc3)cc2)CC1 [Example 42] | 179 nM |
| CC(O)C1CCN(c2ccc(NC(=O)C(=O)Nc3ccc(-c4cc5cc(F)c(-c6nnn[nH]6)cc5n4C4CCC4)cc3)cc2)C1 (stereo not drawn) [Example 15] | 183 nM |
| CC(C)(O)C1CCN(c2ccc(NC(=O)C(=O)Nc3ccc(-c4cc5cc(F)c(-c6nnn[nH]6)cc5n4C4(C)CCC4)cc3)cc2)CC1 [Example 34] | 72 nM |
| Cc1nnc(-c2cc3c(cc2F)cc(-c2ccc(NC(=O)C(=O)Nc4ccc(N5CCC6(CCOC6)CC5)cc4)cc2)n3C2CCC2)[nH]1 [Example 128] | > 10000 nM |
| CC(C)(O)C1CCN(c2ccc(NC(=O)C(=O)Nc3ccc(-c4cc5cc(F)c(-c6nnn[nH]6)cc5n4CC(F)(F)F)cc3)cc2)CC1 [Example 39] | 43 nM |
| O=C(Nc1ccc(-c2cc3cc(F)c(-c4nnn[nH]4)cc3n2C2CCC2)cc1)C(=O)Nc1ccc(N2CCC3(CCCCO3)CC2)cc1 [Example 73] | 48 nM |
| CC1(n2c(-c3ccc(NC(=O)C(=O)Nc4ccc(N5CCC6(CC(O)C6)C5)cc4)cc3)cc3cc(F)c(-c4nnn[nH]4)cc32)CCC1 (stereo not drawn) [Example 90] | 139 nM |
| O=C(Nc1ccc(C2=CCOCC2)cc1)C(=O)Nc1ccc(-c2cc3cc(F)c(-c4nnn[nH]4)cc3n2C2CCC2)cc1 [Example 52] | 102 nM |
| CC1(C#N)CCN(c2ccc(NC(=O)C(=O)Nc3ccc(-c4cc5cc(F)c(-c6nnn[nH]6)cc5n4C4CCC4)cc3)cc2)C1 (stereo not drawn) [Example 11] | 30 nM |
| CC(C)(O)CCC1CCN(c2ccc(NC(=O)C(=O)Nc3ccc(-c4cc5cc(F)c(-c6nnn[nH]6)cc5n4C4CCC4)cc3)cc2)CC1 [Example 28] | 92 nM |
| O=C(Nc1ccc(-c2cc3cc(F)c(-c4nnn[nH]4)cc3n2CC2CC2)cc1)C(=O)Nc1ccc(N2CCC3(CCOC3)CC2)cc1 [Example 72] | 46 nM |

Same assay, conditions: relative to 11a-1, IC50 = 0.108 µM

| Structure (SMILES) | SHP2 IC50 times lower than control compound 11a-1 |
| --- | --- |
| CC1(O)CCC2(CN(c3ccc(NC(=O)C(=O)Nc4ccc(-c5cc6cc(F)c(-c7nnn[nH]7)cc6n5C5(C)CCC5)cc4)cc3)C2)C1 (stereo not drawn) [Example 80] | 3-4 times |
| O=C(Nc1ccc(-c2cc3cc(F)c(-c4nnn[nH]4)cc3n2C2CCC2)cc1)C(=O)Nc1ccc(N2CCC3(CC2)COC3)cc1 [Example 63] | 3-4 times |
| CC1(C#N)CCN(c2ccc(NC(=O)C(=O)Nc3ccc(-c4cc5cc(F)c(-c6nnn[nH]6)cc5n4C4CCC4)cc3)cc2)C1 (stereo not drawn) [Example 11] | 3-4 times |
